The values below come from US20250171404A1, “PCNA INHIBITORS AND USES THEREOF” (CITY OF HOPE, priority 2022, published 2025).

Test [1] has as its target caPCNA (Homo sapiens, UniProt P12004). The test is described as follows: Molecular probe binding in vitro.
Test [2] addresses T1, PCNA (Homo sapiens, UniProt P12004).
T1 construct: made in house; host or cells: E. coli Rosetta 2 (DE3)
Kind of test: Thermal denaturation (thermal shift) assay. Type of test: binding. Particulars: FIG. 24. As for the experimental part: FIGS. 1A-1E. AOH1160 analog interactions with PCNA. FIG. 1A: Thermal shift assay: Normalized inverse derivative thermal denaturation plots of 9 μM apo-PCNA with DMSO control is depicted with a black dashed line and PCNA in the presence of 10 μM AOH1160LE is shown in light grey and 30 μM AOH1160LE in dark grey. ΔTm values are provided. FIG. 1B: As described in FIG. 1A, in the presence of 10 μM AOH1996 depicted in light grey and 30 μM AOH1996 depicted in dark grey. FIG. 1C: Four monomers (chains A-D) of PCNA are present in the asymmetric unit of the crystal. Chains A, B, and C form the homotrimer biological unit, while chain Dis orientated perpendicular to the plane of the ring, below the interface of chains B and C and it belongs to an adjacent ring. Inset: Three molecules of AOH1160LE bind in and adjacent to the PIP box cavity of each of the PCNA ring subunits. The omit map, gray mesh, is contoured to 1.56. Two PCNA monomer subunits from adjacent rings stack against each other, placing the PIP box and IDCLs of each subunit in opposing directions. FIG. 1D: The three AOH1160LE molecules are shown as stick figure representations. Two of the compounds, left and central, bind into the PIP box cavity at known PCNA-partner/compound interaction sites. […] The electrostatic surface maps are depicted with Poisson-Boltzmann electrostatic surface potentials shown in dark grey and light grey, corresponding to −10 to +10 kT/e respectively.
Targeting the PIP box and APIM binding domain of PCNA. AOH1160, a small molecule PCNA ligand, targets the cancer-distinct L126-Y133 region of PCNA (Malkas et al., 2006) and is selectively toxic to cancer cells (Gu et al., 2018). […]
Thermal denaturation assay for PCNA-AOH1996 interaction. […] Fluorescence intensity was measured within the excitation/emission ranges 470-505/540-700 nm.

Test [3] can be described thus: Cell growth IC50, screening of AOH1160 analogs (cell line not given). Type of test: cell-based. Particulars: read-out: IC50 values. The method, then: (§1) FIG. 29. IC50 data for select compounds. The indicated cell lines were seeded at 10^4 cells per well in a 96 well plate. After allowing to attach to the plate overnight, cells were treated with various concentrations of the indicated compounds in triplicates for 72 hrs. The cell growth was measured by an SRB assay. The cell abundances under each treatment condition relative to the baseline were averaged and graphed ±S.D. The baseline is defined as the median value of the cell abundances under the treatment by the two lowest compound concentrations. The IC50 was calculated by the Prism program.

Test [4] relates to γH2A.X. Kind of test: γH2A.X Western blot (DNA damage marker). Type of test: cell-based, human. The following applies: SK-N-AS; 500 nM AOH1996 and/or 50 μM DRB overnight. For orientation: Immunoblotting shows a protein as a band on a membrane.
Test [5] has as its system A673. The test is described as follows: Cell growth IC50, screening of AOH1160 analogs. Format: cell-based. Particulars: Homo sapiens. The method, then:
as §1

For test [6], the system named is A549. Kind of test: Cell growth IC50, screening of AOH1160 analogs. Format: cell-based. Particulars: Homo sapiens. As for the experimental part:
as §1

Test [7] concerns Hela. The test is described as follows: Cell growth IC50, screening of AOH1160 analogs. Type of test: cell-based. The following applies: Homo sapiens. As for the experimental part: as §1
In test [8] the test system is SK-N-AS. The test is described as follows: Cell growth IC50, screening of AOH1160 analogs. Type of test: cell-based. The following applies: Homo sapiens. The method, then: as §1
Test [9] relates to A375. The test is described as follows: Cell growth IC50, screening of AOH1160 analogs. Type of test: cell-based. Particulars: Homo sapiens, A-375. As for the experimental part:
as §1

The subject of test [10] is SK-N-BE(2)c. Kind of test: Cell growth IC50, screening of AOH1160 analogs. Type of test: cell-based. Particulars: Homo sapiens. The method, then: as §1
Test [11] deals with SK-N-AS derived xenograft tumors. The test is described as follows: Survival of mice bearing xenograft tumors, AOH1996 with CPT-11. Format: in vivo, ES1^e/SCID mice. Particulars: AOH1996 80 mg/kg oral 8 d; CPT-11 15 mg/kg i.p. 3 d; vs untreated. As for the experimental part: FIGS. 4A-4H. Pharmacokinetics and anti-tumor growth activity of AOH1996 in vivo. FIG. 4A: After oral administration, the plasma concentrations of AOH1996 from three male and three female ES1^e/SCID mice at the indicated time points were averaged and graphed ±S.D. The inset contains PK parameters determined by a standard noncompartmental method. FIG. 4B: A similar PK study of AOH1996 was performed in dogs. FIGS. 4C-4E: Mice bearing the xenograft tumors of neuroblastoma (FIG. 4C: SK-N-BE(2)c), breast cancer (FIG. 4D: MDA-MB-468), and small-cell lung cancer (FIG. 4E: H82) were given vehicle only (black) or 40 mg/kg of AOH1996 (grey) twice daily immediately after the first measurement. Tumor sizes were measured by a dial caliper each week. Tumor volumes (0.4×L×W^2) were averaged and graphed ±S.E. (*, P<0.01). FIG. 4F: Animal body weight was monitored throughout the studies as an indicator of toxicity. […] FIG. 4G: The levels of phosphor-Chk1 (pChk1) and γH2A.X in SK-N-BE(2)c derived tumor samples were analyzed by IHC. […] The p values determined by the Log-rank (Mantel-Cox) test between combination treatment and each of the control groups are p=0.0003 (Combination vs. NoRx), p=0.005 (Combination vs. AOH1996 alone), and p=0.024 (Combination vs. CPT-11 alone). […]
In vivo tumor model. […] Tumor size and animal weight were measured weekly. […]

In test [12] the test system is SK-N-DZ. The test is described as follows: Cell growth IC50, screening of AOH1160 analogs. Particulars: Homo sapiens. Type of test: cell-based. The method, then:
as §1

Test [13] deals with H1753. Kind of test: Cell growth IC50, screening of AOH1160 analogs. Format: cell-based. As for the experimental part: as §1
In test [14] the test system is H358. The test is described as follows: Cell growth IC50, screening of AOH1160 analogs. The following applies: Homo sapiens, NCI-H358. Type of test: cell-based. As for the experimental part:
as §1

The subject of test [15] is MDA-MB-468. The test is described as follows: Cell growth IC50, screening of AOH1160 analogs. Type of test: cell-based. The following applies: Homo sapiens, MDA-MB-468; read-out: IC50 values. The method, then: as §1

Structures are written as SMILES. Where two headings read alike, the source gives them in different places.

In general, IC50 refers to the concentration needed to halve the response being measured.

Sequence of caPCNA (P12004 whole entry): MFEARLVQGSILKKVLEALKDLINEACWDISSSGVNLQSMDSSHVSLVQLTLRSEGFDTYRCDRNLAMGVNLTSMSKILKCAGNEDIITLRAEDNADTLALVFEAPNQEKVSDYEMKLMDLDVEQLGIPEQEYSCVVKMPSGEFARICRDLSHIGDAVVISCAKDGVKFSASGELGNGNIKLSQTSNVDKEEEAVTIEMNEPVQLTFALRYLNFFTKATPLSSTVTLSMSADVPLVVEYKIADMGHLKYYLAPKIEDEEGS
T1 sequence (P12004 whole entry): as above

For the compound `N[C@@H](CCC(=O)O)C(=O)O` [Glutamic acid], the “binding to caPCNA as molecular probe” value in test [1] was “bound caPCNA tightly”.
On to `CC(C)[C@H](NC(=O)c1cccc2ccccc12)C(=O)Nc1ccccc1Oc1ccccc1` [AOH1160LV, (S)—N-(3-methyl-1-oxo-1-((2-phenoxyphenyl)amino)butan-2-yl)-1-naphthamide], for which the “ΔTm (TSA data)” value in [2] was “very similar ΔTm compared to AOH1996”. Besides, the IC50 in [3] was greater than 10000 nM.
As to `OC[C@H]1O[C@@H](n2cnc3cc(Cl)c(Cl)cc32)[C@H](O)[C@@H]1O` [DRB, reference compound], the “γH2A.X levels, AOH1996 with DRB” value in [4] is recorded as “can suppress the DNA damage induced by AOH1996”.
With `NCCCC[C@H](N)C(=O)O` [Lysine], in [1], the “binding to caPCNA as molecular probe” value is given as “bound caPCNA tightly”.
With `COc1cccc(Oc2ccccc2NC(=O)CNC(=O)c2c(C)cc(C)cc2C)c1` [AOH1996TMB, N-(2-((2-(3-methoxyphenoxy)phenyl)amino)-2-oxoethyl)-2,4,6-trimethylbenzamide], the IC50 came to 5500 nM in [5] (FIG. 27, read-out: IC50); 5500 nM in [5] (read-out: IC50 values); 4700 nM in test [6] (FIG. 27, read-out: IC50); 4700 nM in test [6] (read-out: IC50 values); 6500 nM in test [7] (HeLa, read-out: IC50 values); 6500 nM in test [7] (FIG. 27, Hela, read-out: IC50).
Consider `O=C(CNC(=O)c1cccc2ccccc12)Nc1ccccc1Sc1ccc(F)cc1` [AOH1996S-4F, N-(2-((2-((4-fluorophenyl)thio)phenyl)amino)-2-oxoethyl)-1-naphthamide], for which the figures for the IC50 in [8] (read-out: IC50 values) and in [9] were 370 nM and 350 nM, respectively.
Consider `Cc1ccccc1Oc1ccccc1NC(=O)CNC(=O)c1cccc(C)c1C` [AOH-DMB-2CH3, 2,3-dimethyl-N-(2-oxo-2-((2-(o-tolyloxy)phenyl)amino)ethyl)benzamide], for which the figures for the IC50 in test [8] (read-out: IC50 values) and in test [10] were 1120 nM and 1030 nM, respectively.
On to `CCc1c2c(nc3ccc(OC(=O)N4CCC(N5CCCCC5)CC4)cc13)-c1cc3c(c(=O)n1C2)COC(=O)[C@]3(O)CC` [CPT-11, reference compound], for which the “increase of median survival” value in test [11] amounted to 34.6%.
Regarding `O=C(CNC(=O)c1cccc2ccccc12)Nc1c(Cl)cccc1Oc1ccccc1` [AOH1160-2-C1], the IC50 in test [8] (read-out: IC50 values), in test [12] and in test [10] was greater than 10000 nM in each case.
Turning to `COc1cccc(Sc2ccccc2NC(=O)CNC(=O)c2cccc3ccccc23)c1` [AOH1996S, N-(2-((2-((3-methoxyphenyl)thio)phenyl)amino)-2-oxoethyl)-1-naphthamide], the IC50 is 370 nM in [7] (HeLa, read-out: IC50 values) and 170 nM in test [9].
Regarding `COc1cccc(Oc2ccccc2NC(=O)[C@H](C)NC(=O)c2cccc3ccccc23)c1` [AOH1996LA, (S)—N-(1-((2-(3-methoxyphenoxy)phenyl)amino)-1-oxopropan-2-yl)-1-naphthamide], the IC50 was 1600 nM in [13] (FIG. 26, H1752, read-out: IC50); 1600 nM in test [13] (H1753, read-out: IC50 values); 1800 nM in [14] (FIG. 26, H358, read-out: IC50); 1800 nM in [14] (read-out: IC50 values); 1500 nM in test [8] (FIG. 26, AK-N-AS, read-out: IC50); 1500 nM in [8] (read-out: IC50 values). The IC50 in test [15] is 2300 nM.
